Laboratory results as given in patent US12653191B2, “Active compound combinations” (Bayer Aktiengesellschaft, priority 2020, dated 2026).
Several values for one entry are separate records, joined by “and”; a condition that tells them apart may be missing. Equal entries are not always repeated. Where two headings read alike, the source gives them in different places.

What was measured:
Format in all cases: cell-based
Alternaria alternata = assay: in vitro-Test with fungal microorganisms, Method B (tables A13-A22)
Summary of the method: (§1)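 Efficacy, relative to untreated control (0% = growth as in control, 100% = no growth), from photometric growth measurement at 600 nm after 3 to 7 days at 20° C., 85% relative humidity. Compound applied in methanol+emulsifier, solvent evaporated, then spore/mycelium-amended liquid medium added.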

Botrytis cinerea [1] = assay: in vitro-Test with fungal microorganisms, Method B (tables B15-B18)
Summary of the method: as §1

Cercospora beticola [2] = assay: in vitro-Test with fungal microorganisms, Method B (tables C11-C20)
Summary of the method: as §1

Cordana musae [3] = assay: in vitro-Test with fungal microorganisms, Method B (tables E9-E16); details: for Efficacy %: single substance
Summary of the method: as §1

Diaporthe citri [4] = assay: in vitro-Test with fungal microorganisms, Method B (tables F12-F15)
Description: Example: In Vitro-Test with Fungal Microorganisms
Wells of 96-well microtiter plates are filled with 30 μl of a preparation of test compound or compound combination in methanol+emulsifier alkylaryl-polyglycol-ether. Thereafter, the solvent is evaporated in a hood. At the next step, 200 μl of liquid growth medium is given, that has been amended with an appropriate concentration of spores or mycelium suspension of the test fungus.
With the aid of a photometer, the extinction in all wells is measured at the wavelength of 600 nm.
The microtiter plates are incubated for 3 to 7 days at 20° C. and 85% relative humidity. After the incubation inhibition of growth is determined photometrically. Efficacy is calculated in relation to the untreated control, 0% efficacy means fungal growth as high as in untreated control while 100% efficacy means no fungal growth is measured.
The data in tables A1 to A12, B1 to B14, C1 to C10, D1 to D8, E1 to E8, F1 to F11, G1 to G4, H1 to H4 and I1 to I5 were collected according to Method A. The data in tables A13 to A22, B15 to B18, C11 to C20, E9 to E16, F12 to F15, G5 to G15, H5 to H8, I6 to I11 and J1 to J11 were collected according to Method B.

Fusarium culmorum [5] = assay: in vitro-Test with fungal microorganisms, Method B (tables G5-G15)
Summary of the method: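 Steps: solvent evaporation leaves the compound coating the wells; fungus-inoculated liquid growth medium goes on top; absorbance at 600 nm is measured; incubation runs 3 to 7 days at 20° C. with 85% relative humidity. Inhibition is then read photometrically and expressed as efficacy against untreated control.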

Parastagonospora nodorum = assay: in vitro-Test with fungal microorganisms, Method B (tables H5-H8)
Summary of the method: as §1

[6] = test system: Ustilago segetum var. avenae; assay: in vitro-Test with fungal microorganisms, Method B (tables I6-I11)
Summary of the method: as §1

Botrytis cinerea [7] = assay: in vitro-Test with fungal microorganisms, Method A (tables B1-B14); details: Botrytis cinerea
Summary of the method: (§2)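 Methanol/emulsifier compound solution evaporated in well; liquid potato dextrose medium + spore or mycelium suspension added; 20° C, 85% RH, 3-5 d; photometric read 620 nm; % efficacy vs untreated.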

Cercospora beticola [8] = assay: in vitro-Test with fungal microorganisms, Method A (tables C1-C10); details: Cercospora beticola, read-out: Efficacy %
Summary of the method: as §2

[9] = test system: Colletotrichum lindemuthianum; assay: in vitro-Test with fungal microorganisms, Method A (tables D1-D8)
Summary of the method: as §2

Cordana musae [10] = assay: in vitro-Test with fungal microorganisms, Method A (tables E1-E8); details: Neocordana musae, single substance, read-out: Efficacy %
Summary of the method: as §2

Diaporthe citri [11] = assay: in vitro-Test with fungal microorganisms, Method A (tables F1-F11); details: Diaporthe citri, read-out: Efficacy
Summary of the method: as §2

Fusarium culmorum [12] = assay: in vitro-Test with fungal microorganisms, Method A (tables G1-G4); details: alone
Summary of the method: as §2

[13] = test system: Ustilago segetum var. avenae; assay: in vitro-Test with fungal microorganisms, Method A (tables I1-I5); details: alone, read-out: Efficacy %
Summary of the method: as §2

Colletotrichum coccodes = assay: in vitro-Test with fungal microorganisms, Method B (tables J1-J11); details: Colletotrichum coccodes, read-out: Efficacy %
Summary of the method: as §1

`COCC(=O)N(c1c(C)cccc1C)[C@H](C)C(=O)OC` [(12.004) metalaxyl-M, metalaxyl-M (mefenoxam)] showed an Efficacy (Alternaria alternata; 4 ppm) of 10%, an Efficacy % (Botrytis cinerea [1]; 0.8 ppm, alone) of 5% and an Efficacy % (Botrytis cinerea [1]; 4 ppm alone) of 3%. The Efficacy % (Botrytis cinerea [1]; 20 ppm alone) was 4%, the Efficacy % (Botrytis cinerea [1]; 100 ppm alone) was 13% and the Efficacy % (Cercospora beticola [2]; 4 ppm) was 10%. The Efficacy % (Cercospora beticola [2]; 20 ppm) was 0%, the Efficacy % (Cercospora beticola [2]; single compound, 20 ppm) was 0% and the Efficacy (Cordana musae [3]; single active, 0.8 ppm) was 0%. For the same molecule, the Efficacy (Cordana musae [3]; single active, 4 ppm) was 0% and 9%, the Efficacy (Cordana musae [3]; single active, 20 ppm) was 0% and 8% and the Efficacy (Diaporthe citri [4]; Table F14, 0.8 ppm alone) was 0%. It also gave an Efficacy (Diaporthe citri [4]; Table F14, 4 ppm alone) of 0%, an Efficacy (Diaporthe citri [4]; Table F14, 20 ppm alone) of 0% and an Efficacy (Fusarium culmorum [5]; 0.8 ppm, alone) of 0%. The Efficacy (Fusarium culmorum [5]; 4 ppm alone) was 0%, the Efficacy (Fusarium culmorum [5]; single active compound, 100 ppm) was 22% and 23% and the Efficacy (Parastagonospora nodorum; 0.8 ppm) was 12%. It also gave an Efficacy (Parastagonospora nodorum; 4 ppm) of 8%, an Efficacy (Parastagonospora nodorum; 20 ppm) of 3% and an Efficacy % ([6]; 0.8 ppm, listed as (12.004) metalaxyl-m) of 11%. The Efficacy % ([6]; 4 ppm) was 8% and the Efficacy % ([6]; 20 ppm) was 12%.

With `N#Cc1sc2c(=O)c3ccccc3c(=O)c=2sc1C#N` [(5.010) dithianon, dithianon] the inhibition of growth at 0.4 ppm (Alternaria alternata; Alternaria alternata, single compound, 0.4 ppm, read-out: Efficacy) was 0%, the inhibition of growth at 2 ppm (Alternaria alternata; Alternaria alternata, single compound, 2 ppm, read-out: Efficacy) was 32% and the inhibition of growth at 0.8 ppm (Botrytis cinerea [7]; read-out: Efficacy) was 0%. It also gave an inhibition of growth at 4 ppm (Botrytis cinerea [7]; 4.0 ppm, read-out: Efficacy) of 23%, an inhibition of growth at 20 ppm (Botrytis cinerea [7]; read-out: Efficacy) of 100% and an inhibition of growth at 0.8 ppm (Botrytis cinerea [7]; alone, read-out: Efficacy %) of 0%. It also gave an inhibition of growth at 20 ppm (Botrytis cinerea [7]; alone, read-out: Efficacy %) of 99%, an inhibition of growth at 0.8 ppm (Cercospora beticola [8]; 0.8 ppm) of 0% and an inhibition of growth at 4 ppm (Cercospora beticola [8]; 4.0 ppm alone) of 100%. It also gave an inhibition of growth at 4 ppm (Cercospora beticola [8]; 4.0 ppm) of 100%, an inhibition of growth at 20 ppm (Cercospora beticola [8]; 20.0 ppm alone) of 99% and an inhibition of growth at 20 ppm (Cercospora beticola [8]; 20.0 ppm) of 99%. The inhibition of growth at 0.08 ppm (Cercospora beticola [2]; Cercospora beticola, 0.08 ppm, read-out: Efficacy %) was 0%, the inhibition of growth at 0.4 ppm (Cercospora beticola [2]; Cercospora beticola, 0.4 ppm, read-out: Efficacy %) was 3% and the inhibition of growth at 2 ppm (Cercospora beticola [2]; Cercospora beticola, 2 ppm, read-out: Efficacy %) was 100%. For the same molecule, the inhibition of growth at 0.8 ppm ([9]; Colletotrichum lindemuthianum, single active at 0.8 ppm, read-out: Efficacy %) was 0%, the inhibition of growth at 4 ppm ([9]; Colletotrichum lindemuthianum, single active at 4.0 ppm, read-out: Efficacy %) was 100% and the inhibition of growth at 20 ppm ([9]; Colletotrichum lindemuthianum, single active at 20.0 ppm, read-out: Efficacy %) was 100%. The Efficacy % ([9]; single active at 0.8 ppm) was 0%, the inhibition of growth at 0.8 ppm (Cordana musae [10]; 0.8 ppm) was 0% and the inhibition of growth at 4 ppm (Cordana musae [10]; 4.0 ppm) was 100%. The inhibition of growth at 2 ppm (Cordana musae [3]; Neocordana musae, single active, 2 ppm, read-out: Efficacy) was 95%, the Efficacy % (Cordana musae [3]; 0.08 ppm) was 0% and the Efficacy % (Cordana musae [3]; 10 ppm) was 100%. For the same molecule, the inhibition of growth at 0.8 ppm (Diaporthe citri [11]; Table F10, 0.8 ppm alone) was 9%, the inhibition of growth at 4 ppm (Diaporthe citri [11]; Table F10, 4.0 ppm alone) was 99% and the inhibition of growth at 20 ppm (Diaporthe citri [11]; Table F10, 20.0 ppm alone) was 98%. It also gave an inhibition of growth at 0.8 ppm (Diaporthe citri [11]; applied alone, 0.8 ppm) of 17%, an inhibition of growth at 20 ppm (Diaporthe citri [11]; applied alone, 20.0 ppm) of 98% and an Efficacy (Diaporthe citri [4]; Table F13, 0.4 ppm alone) of 13%. The Efficacy (Fusarium culmorum [12]; 20.0 ppm) was 100%, the inhibition of growth at 4 ppm (Fusarium culmorum [12]; Fusarium culmorum, 4.0 ppm, read-out: Efficacy) was 0% and the inhibition of growth at 0.08 ppm (Fusarium culmorum [5]; Fusarium culmorum, single active compound, 0.08 ppm, read-out: Efficacy) was 4%. It also gave an inhibition of growth at 0.08 ppm (Parastagonospora nodorum; Parastagonospora nodorum, 0.08 ppm, read-out: Efficacy) of 12%, an inhibition of growth at 0.4 ppm (Parastagonospora nodorum; Parastagonospora nodorum, 0.4 ppm, read-out: Efficacy) of 5% and an inhibition of growth at 2 ppm (Parastagonospora nodorum; Parastagonospora nodorum, 2 ppm, read-out: Efficacy) of 96%. For the same molecule, the inhibition of growth at 0.8 ppm ([13]; 0.8 ppm) was 12%, the inhibition of growth at 4 ppm ([13]; 4.0 ppm) was 100% and the inhibition of growth at 20 ppm ([13]; 20.0 ppm) was 99%. The inhibition of growth at 0.08 ppm ([6]; 0.08 ppm, read-out: Efficacy %) was 2%, the inhibition of growth at 0.4 ppm ([6]; 0.4 ppm, read-out: Efficacy %) was 0% and the inhibition of growth at 2 ppm ([6]; 2 ppm, read-out: Efficacy %) was 29%. It also gave an inhibition of growth at 0.08 ppm (Colletotrichum coccodes; single active compound at 0.08 ppm) of 0%, an inhibition of growth at 0.4 ppm (Colletotrichum coccodes; single active compound at 0.4 ppm) of 11% and an inhibition of growth at 10 ppm (Colletotrichum coccodes; single active compound at 10 ppm) of 100%.
